Biological target: T1, rat CB2 receptor (rCB2) (Rattus norvegicus, UniProt Q9QZN9)
T1 sequence (Q9QZN9 1-360): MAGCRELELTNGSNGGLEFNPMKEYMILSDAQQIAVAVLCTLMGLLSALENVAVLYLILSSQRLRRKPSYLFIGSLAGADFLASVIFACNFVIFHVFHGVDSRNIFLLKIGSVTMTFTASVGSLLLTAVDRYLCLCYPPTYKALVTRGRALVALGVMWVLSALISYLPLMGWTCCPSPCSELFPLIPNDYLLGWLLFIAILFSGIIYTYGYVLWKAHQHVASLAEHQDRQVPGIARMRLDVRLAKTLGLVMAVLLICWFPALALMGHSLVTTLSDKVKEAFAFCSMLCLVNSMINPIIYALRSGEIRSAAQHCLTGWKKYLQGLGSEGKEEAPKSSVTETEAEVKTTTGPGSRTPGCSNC

C[C@@H](NC(=O)c1nc(-c2ccccc2)n2c1CN(C(=O)C1CC1)CC2)C1CCCCC1 [Compound 132, (R)-N-(1-cyclohexylethyl)-7-(cyclopropanecarbonyl)-3-phenyl-5,6,7,8-tetrahydroimidazo[1,5-a]pyrazine-1-carboxamide]
EC50: 10 to 100 nM

COC(=O)[C@@H](NC(=O)c1nc(-c2ccc(C)cc2F)n2c1CN(CC1CC1)CCC2)C(C)(C)C [Compound 470, (S)-methyl 2-(8-(cyclopropylmethyl)-3-(2-fluoro-4-methylphenyl)-6,7,8,9-tetrahydro-5H-imidazo[1,5-a][1,4]diazepine-1-carboxamido)-3,3-dimethylbutanoate]
EC50: 10 to 100 nM

CNC(=O)[C@@H](NC(=O)c1nc(-c2ccccc2)n2c1CN(S(=O)(=O)C1CC1)CC2)C(C)(C)C [Compound 100, (S)-7-(cyclopropylsulfonyl)-N-(3,3-dimethyl-1-(methylamino)-1-oxobutan-2-yl)-3-phenyl-5,6,7,8-tetrahydroimidazo[1,5-a]pyrazine-1-carboxamide]
EC50: 10 to 100 nM

CNC(=O)[C@@H](NC(=O)c1nc(-c2cccc(C(F)(F)F)c2)n2c1CNCC2)C(C)(C)C [Compound 3, (S)-N-(3,3-dimethyl-1-(methylamino)-1-oxobutan-2-yl)-3-(3-(trifluoromethyl)phenyl)-5,6,7,8-tetrahydroimidazo[1,5-a]pyrazin-1-carboxamide]
EC50: 10 to 100 nM

CNC(=O)[C@@H](NC(=O)c1nc(-c2ccccc2)n2c1CN(S(=O)(=O)CC(C)C)CC2)C(C)(C)C [Compound 95, (S)-N-(3,3-dimethyl-1-(methylamino)-1-oxobutan-2-yl)-7-(isobutylsulfonyl)-3-phenyl-5,6,7,8-tetrahydroimidazo[1,5-a]pyrazine-1-carboxamide]
EC50: 10 to 100 nM

CNC(=O)[C@@H](NC(=O)c1nc(-c2ccc3ccccc3c2)n2c1CN(C)CCC2)C(C)(C)C [Compound 380, (S)-N-(3,3-dimethyl-1-(methylamino)-1-oxobutan-2-yl)-8-methyl-3-(naphthalen-2-yl)-6,7,8,9-tetrahydro-5H-imidazo[1,5-a][1,4]diazepine-1-carboxamide]
EC50: 10 to 100 nM

Cc1noc([C@@H](NC(=O)c2nc(-c3ccccc3)n3c2CN(C)CC3)C(C)(C)C)n1 [Compound 87, (S)-N-(2,2-dimethyl-1-(3-methyl-1,2,4-oxadiazol-5-yl)propyl)-7-methyl-3-phenyl-5,6,7,8-tetrahydroimidazo[1,5-a]pyrazine-1-carboxamide]
EC50: 10 to 100 nM

CNC(=O)[C@@H](NC(=O)c1nc(-c2ccccc2)n2c1CN(c1cncc(Cl)n1)CC2)C(C)(C)C [Compound 300, (S)-7-(6-chloropyrazin-2-yl)-N-(3,3-dimethyl-1-(methylamino)-1-oxobutan-2-yl)-3-phenyl-5,6,7,8-tetrahydroimidazo[1,5-a]pyrazine-1-carboxamide]
EC50: 10 to 100 nM

CNC(=O)[C@@H](NC(=O)c1nc(-c2ccccc2)n2c1CN(CC1CC1)CC2)C(C)(C)C [Compound 56, (S)-7-(cyclopropylmethyl)-N-(3,3-dimethyl-1-(methylamino)-1-oxobutan-2-yl)-3-phenyl-5,6,7,8-tetrahydroimidazo[1,5-a]pyrazine-1-carboxamide]
EC50: 10 to 100 nM

CNC(=O)[C@@H](NC(=O)c1nc(-c2ccc(-c3ccccc3)cc2)n2c1CN(C)CC2)C(C)(C)C [Compound 265, (S)-3-(biphenyl-4-yl)-N-(3,3-dimethyl-1-(methylamino)-1-oxobutan-2-yl)-7-methyl-5,6,7,8-tetrahydroimidazo[1,5-a]pyrazine-1-carboxamide]
EC50: 10 to 100 nM

CNC(=O)[C@@H](NC(=O)c1nc(-c2ccccc2)n2c1CN(S(=O)(=O)c1ccc(C(F)(F)F)cc1)CC2)C(C)(C)C [Compound 107, (S)-N-(3,3-dimethyl-1-(methylamino)-1-oxobutan-2-yl)-3-phenyl-7-(4-(trifluoromethyl)phenylsulfonyl)-5,6,7,8-tetrahydroimidazo[1,5-a]pyrazine-1-carboxamide]
EC50: 10 to 100 nM

COC(=O)[C@@H](NC(=O)c1nc(-c2ccc(C)cc2F)n2c1CNCCC2)C(C)(C)C [Compound 466]
EC50: 10 to 100 nM

CCN1CCn2c(-c3ccc(Cl)cc3)nc(C(=O)NCCC(C)C)c2C1 [Compound 158, 3-(4-chlorophenyl)-7-ethyl-N-isopentyl-5,6,7,8-tetrahydroimidazo[1,5-a]pyrazine-1-carboxamide]
EC50: 10 to 100 nM

CC(C)CN1CCn2c(-c3ccccc3)nc(C(=O)NN3CCCCC3)c2C1 [Compound 155, 7-isobutyl-3-phenyl-N-(piperidin-1-yl)-5,6,7,8-tetrahydroimidazo[1,5-a]pyrazine-1-carboxamide]
EC50: 0.1 to 10 nM

CNC(=O)[C@@H](NC(=O)c1nc(-c2ccccc2)n2c1CN(S(=O)(=O)c1ccc(C#N)cc1)CC2)C(C)(C)C [Compound 108, (S)-7-(4-cyanophenylsulfonyl)-N-(3,3-dimethyl-1-(methylamino)-1-oxobutan-2-yl)-3-phenyl-5,6,7,8-tetrahydroimidazo[1,5-a]pyrazine-1-carboxamide]
EC50: 10 to 100 nM

CC(C)(C)OC(=O)N1CCn2c(-c3ccccc3)nc(C(=O)NC3CCCCC3)c2C1 [Compound 36, tert-butyl 1-(cyclohexylcarbamoyl)-3-phenyl-5,6-dihydroimidazo[1,5-a]pyrazine-7(8H)-carboxylate]
EC50: 10 to 100 nM

Cc1ccc(-c2nc(C(=O)N[C@H](c3nc(C)no3)C(C)(C)C)c3n2CCCNC3)c(F)c1 [Compound 520, (S)-N-(2,2-dimethyl-1-(3-methyl-1,2,4-oxadiazol-5-yl)propyl)-3-(2-fluoro-4-methylphenyl)-6,7,8,9-tetrahydro-5H-imidazo[1,5-a][1,4]diazepine-1-carboxamide]
EC50: 10 to 100 nM

CCCN1CCn2c(-c3ccccc3)nc(C(=O)Nc3ccccc3)c2C1 [Compound 154, N,3-diphenyl-7-propyl-5,6,7,8-tetrahydroimidazo[1,5-a]pyrazine-1-carboxamide]
EC50: 10 to 100 nM

Cc1ccc(-c2nc(C(=O)N[C@H](c3nc(C)no3)C(C)(C)C)c3n2CCCN(C)C3)c(F)c1 [Compound 522, (S)-N-(2,2-dimethyl-1-(3-methyl-1,2,4-oxadiazol-5-yl)propyl)-3-(2-fluoro-4-methylphenyl)-8-methyl-6,7,8,9-tetrahydro-5H-imidazo[1,5-a][1,4]diazepine-1-carboxamide]
EC50: 10 to 100 nM

CC(C)(C)C(=O)N1CCn2c(-c3ccccc3)nc(C(=O)NC3C4(C)CCC(C4)C3(C)C)c2C1 (centres unmarked) [Compound 123, 3-phenyl-7-pivaolyl-N-(1,3,3-trimethylbicyclo[2.2.1]heptan-2-yl)-5,6,7,8-tetrahydroimidazo[1,5-a]pyrazine-1-carboxamide]
EC50: 10 to 100 nM

Cc1noc([C@@H](NC(=O)c2nc(-c3ccccc3)n3c2CN(CC2CC2)CC3)C(C)(C)C)n1 [Compound 88, (S)-7-(cyclopropylmethyl)-N-(2,2-dimethyl-1-(3-methyl-1,2,4-oxadiazol-5-yl)propyl)-3-phenyl-5,6,7,8-tetrahydroimidazo[1,5-a]pyrazine-1-carboxamide]
EC50: 10 to 100 nM

C[C@@H](NC(=O)c1nc(-c2ccccc2)n2c1CN(C(=O)OC(C)(C)C)CC2)C1CCCCC1 [Compound 37, (R)-tert-butyl 1-(1-cyclohexylethylcarbamoyl)-3-phenyl-5,6-dihydroimidazo[1,5-a]pyrazine-7(8H)-carboxylate]
EC50: 10 to 100 nM

CNC(=O)[C@@H](NC(=O)c1nc(-c2ccc(Cl)cc2F)n2c1CN(C)CC2)C(C)(C)C [Compound 241, (S)-3-(4-chloro-2-fluorophenyl)-N-(3,3-dimethyl-1-(methylamino)-1-oxobutan-2-yl)-7-methyl-5,6,7,8-tetrahydroimidazo[1,5-a]pyrazine-1-carboxamide]
EC50: 0.1 to 10 nM

Cc1nnc([C@@H](NC(=O)c2nc(-c3ccccc3)n3c2CN(CC(C)C)CC3)C(C)(C)C)o1 [Compound 202, (S)-N-(2,2-dimethyl-1-(5-methyl-1,3,4-oxadiazol-2-yl)propyl)-7-isobutyl-3-phenyl-5,6,7,8-tetrahydroimidazo[1,5-a]pyrazine-1-carboxamide]
EC50: 10 to 100 nM

CC(C)CN1CCn2c(-c3ccc(Cl)cc3)nc(C(=O)N[C@H](CO)C(C)(C)C)c2C1 [Compound 160, (S)-3-(4-chlorophenyl)-N-(1-hydroxy-3,3-dimethylbutan-2-yl)-7-isobutyl-5,6,7,8-tetrahydroimidazo[1,5-a]pyrazine-1-carboxamide]
EC50: 0.1 to 10 nM

CC(C)(C)CNC(=O)c1nc(-c2ccccc2)n2c1CN(S(=O)(=O)c1ccc(F)cc1)CC2 [Compound 103, 7-(4-fluorophenylsulfonyl)-N-neopentyl-3-phenyl-5,6,7,8-tetrahydroimidazo[1,5-a]pyrazine-1-carboxamide]
EC50: 10 to 100 nM

CNC(=O)[C@@H](NC(=O)c1nc(-c2ccccc2)n2c1CN(S(=O)(=O)c1ccccc1F)CC2)C(C)(C)C [Compound 98, (S)-N-(3,3-dimethyl-1-(methylamino)-1-oxobutan-2-yl)-7-(2-fluorophenylsulfonyl)-3-phenyl-5,6,7,8-tetrahydroimidazo[1,5-a]pyrqazine-1-carboxamide]
EC50: 10 to 100 nM

CNC(=O)[C@H](CC(C)C)NC(=O)c1nc(-c2ccc(Cl)cc2F)n2c1CN(C)CC2 [Compound 276, (S)-3-(4-chloro-2-fluorophenyl)-7-methyl-N-(4-methyl-1-(methylamino)-1-oxopentan-2-yl)-5,6,7,8-tetrahydroimidazo[1,5-a]pyrazine-1-carboxamide]
EC50: 10 to 100 nM

CNC(=O)[C@@H](NC(=O)c1nc(-c2ccccc2)n2c1CN(S(=O)(=O)c1ccccc1[N+](=O)[O-])CC2)C(C)(C)C [Compound 97, (S)-N-(3,3-dimethyl-1-(methylamino)-1-oxobutan-2-yl)-7-(2-nitrophenylsulfonyl)-3-phenyl-5,6,7,8-tetrahydroimidazo[1,5-a]pyrazine-1-carboxamide]
EC50: 10 to 100 nM

Source: patent publication US8431565B2 (priority 2007, dated 2013)
